Among the data in article PMC8599534, “Isoprenylated Flavonoids as Cav3.1 Low Voltage-Gated Ca^2+ Channel Inhibitors from Salvia digitaloides” (Natural Products and Bioprospecting, 2021) are IC50 values, retold here.

This assay concerns the target T1, Cav3.1 low voltage-gated Ca^2+ channel (Homo sapiens, UniProt O43497).
T1 construct: gene CACNA1G
In words: electrophysiology: peak-current inhibition in HEK […] cells expressing human Cav3.[…]. Format: cell-based.

T1 sequence (O43497 whole entry): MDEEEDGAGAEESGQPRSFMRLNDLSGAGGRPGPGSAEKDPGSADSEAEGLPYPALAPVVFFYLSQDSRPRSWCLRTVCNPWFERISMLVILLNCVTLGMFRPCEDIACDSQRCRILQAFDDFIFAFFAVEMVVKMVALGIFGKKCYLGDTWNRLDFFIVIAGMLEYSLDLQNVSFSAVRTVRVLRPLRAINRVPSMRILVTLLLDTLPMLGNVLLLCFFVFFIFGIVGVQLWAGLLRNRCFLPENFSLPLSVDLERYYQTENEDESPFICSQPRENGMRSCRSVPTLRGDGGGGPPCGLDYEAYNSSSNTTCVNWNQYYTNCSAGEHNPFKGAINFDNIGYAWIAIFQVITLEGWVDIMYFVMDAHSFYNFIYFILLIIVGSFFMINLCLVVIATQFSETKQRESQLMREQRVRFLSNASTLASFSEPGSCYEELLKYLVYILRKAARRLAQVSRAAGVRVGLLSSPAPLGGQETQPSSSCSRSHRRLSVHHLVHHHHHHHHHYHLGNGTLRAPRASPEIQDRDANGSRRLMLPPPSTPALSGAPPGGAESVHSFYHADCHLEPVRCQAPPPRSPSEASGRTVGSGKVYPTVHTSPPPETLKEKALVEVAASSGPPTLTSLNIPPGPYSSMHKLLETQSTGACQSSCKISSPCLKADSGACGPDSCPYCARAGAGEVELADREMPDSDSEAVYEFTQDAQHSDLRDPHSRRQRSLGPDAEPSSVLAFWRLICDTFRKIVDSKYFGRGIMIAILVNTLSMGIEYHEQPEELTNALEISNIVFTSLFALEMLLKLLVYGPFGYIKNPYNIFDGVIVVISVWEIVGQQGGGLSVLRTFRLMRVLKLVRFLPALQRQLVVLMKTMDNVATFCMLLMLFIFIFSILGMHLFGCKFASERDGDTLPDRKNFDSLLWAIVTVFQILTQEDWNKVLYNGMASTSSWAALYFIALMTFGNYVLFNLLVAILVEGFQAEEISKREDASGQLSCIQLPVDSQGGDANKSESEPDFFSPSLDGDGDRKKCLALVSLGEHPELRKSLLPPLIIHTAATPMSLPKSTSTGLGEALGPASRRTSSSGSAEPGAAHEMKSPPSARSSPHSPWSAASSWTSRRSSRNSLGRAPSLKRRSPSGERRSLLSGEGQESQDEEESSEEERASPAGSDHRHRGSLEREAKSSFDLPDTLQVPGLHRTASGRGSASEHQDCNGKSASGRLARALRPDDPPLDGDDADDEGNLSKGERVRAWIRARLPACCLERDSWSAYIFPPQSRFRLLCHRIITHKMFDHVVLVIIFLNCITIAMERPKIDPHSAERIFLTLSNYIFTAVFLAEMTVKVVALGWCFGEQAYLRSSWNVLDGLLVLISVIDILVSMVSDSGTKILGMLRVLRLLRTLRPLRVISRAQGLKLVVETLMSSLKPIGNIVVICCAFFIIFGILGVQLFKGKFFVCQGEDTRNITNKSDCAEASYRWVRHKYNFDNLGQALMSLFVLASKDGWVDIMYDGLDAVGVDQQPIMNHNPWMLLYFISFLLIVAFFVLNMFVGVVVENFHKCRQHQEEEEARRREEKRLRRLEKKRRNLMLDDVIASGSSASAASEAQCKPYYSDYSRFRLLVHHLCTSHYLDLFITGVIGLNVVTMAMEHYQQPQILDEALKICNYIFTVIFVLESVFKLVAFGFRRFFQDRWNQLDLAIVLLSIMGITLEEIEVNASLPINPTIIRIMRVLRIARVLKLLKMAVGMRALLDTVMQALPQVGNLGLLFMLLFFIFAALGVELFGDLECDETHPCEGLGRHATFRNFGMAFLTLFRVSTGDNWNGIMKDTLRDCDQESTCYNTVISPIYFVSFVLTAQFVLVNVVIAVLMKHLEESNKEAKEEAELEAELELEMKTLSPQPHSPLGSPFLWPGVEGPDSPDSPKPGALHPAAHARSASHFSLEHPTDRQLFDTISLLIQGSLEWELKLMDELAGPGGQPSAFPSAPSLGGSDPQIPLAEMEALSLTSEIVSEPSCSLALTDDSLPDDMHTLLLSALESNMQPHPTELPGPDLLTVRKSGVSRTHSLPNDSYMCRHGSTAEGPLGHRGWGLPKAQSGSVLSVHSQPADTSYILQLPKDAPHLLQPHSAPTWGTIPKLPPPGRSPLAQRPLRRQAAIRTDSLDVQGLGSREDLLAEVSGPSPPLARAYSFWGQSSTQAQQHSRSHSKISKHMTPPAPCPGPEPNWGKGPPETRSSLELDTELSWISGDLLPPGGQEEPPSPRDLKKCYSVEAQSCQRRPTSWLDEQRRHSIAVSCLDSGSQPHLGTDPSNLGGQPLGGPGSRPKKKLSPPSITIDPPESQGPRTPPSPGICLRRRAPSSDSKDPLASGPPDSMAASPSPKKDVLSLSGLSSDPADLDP

Molecule `CC(C)=CCc1c([C@@H]2CC(=O)c3c(O)cc(O)c(CC=C(C)C)c3O2)cc2c(c1O)OC(C)(C)C=C2` [compound 2, 5,7,3′-trihydroxy-4′,5′-(2⁗,2⁗-dimethylpyran)-8,2′-di(3-methyl-2-butenyl)-(2S)-flavanone] registered an IC50 of 3.5 µM.

Usually IC50 stands for the point on the concentration scale where inhibition reaches its midpoint.
